The compounds below were run against GST-Xa-hAAK1 (Homo sapiens (Human), UniProt Q2M2I8) (assay: biochemical). Conditions: not given.
Procedure, shortened: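 Bacterially expressed GST-Xa-hAAK1 was combined with substrates and compounds (eleven concentrations) and incubated 3 h at room temperature, then stopped with EDTA. Fluorescent substrate and phosphorylated product were separated electrophoretically (Caliper LabChip), and IC50 values came from non-linear regression.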

Sequence of GST-Xa-hAAK1 (Q2M2I8 whole entry): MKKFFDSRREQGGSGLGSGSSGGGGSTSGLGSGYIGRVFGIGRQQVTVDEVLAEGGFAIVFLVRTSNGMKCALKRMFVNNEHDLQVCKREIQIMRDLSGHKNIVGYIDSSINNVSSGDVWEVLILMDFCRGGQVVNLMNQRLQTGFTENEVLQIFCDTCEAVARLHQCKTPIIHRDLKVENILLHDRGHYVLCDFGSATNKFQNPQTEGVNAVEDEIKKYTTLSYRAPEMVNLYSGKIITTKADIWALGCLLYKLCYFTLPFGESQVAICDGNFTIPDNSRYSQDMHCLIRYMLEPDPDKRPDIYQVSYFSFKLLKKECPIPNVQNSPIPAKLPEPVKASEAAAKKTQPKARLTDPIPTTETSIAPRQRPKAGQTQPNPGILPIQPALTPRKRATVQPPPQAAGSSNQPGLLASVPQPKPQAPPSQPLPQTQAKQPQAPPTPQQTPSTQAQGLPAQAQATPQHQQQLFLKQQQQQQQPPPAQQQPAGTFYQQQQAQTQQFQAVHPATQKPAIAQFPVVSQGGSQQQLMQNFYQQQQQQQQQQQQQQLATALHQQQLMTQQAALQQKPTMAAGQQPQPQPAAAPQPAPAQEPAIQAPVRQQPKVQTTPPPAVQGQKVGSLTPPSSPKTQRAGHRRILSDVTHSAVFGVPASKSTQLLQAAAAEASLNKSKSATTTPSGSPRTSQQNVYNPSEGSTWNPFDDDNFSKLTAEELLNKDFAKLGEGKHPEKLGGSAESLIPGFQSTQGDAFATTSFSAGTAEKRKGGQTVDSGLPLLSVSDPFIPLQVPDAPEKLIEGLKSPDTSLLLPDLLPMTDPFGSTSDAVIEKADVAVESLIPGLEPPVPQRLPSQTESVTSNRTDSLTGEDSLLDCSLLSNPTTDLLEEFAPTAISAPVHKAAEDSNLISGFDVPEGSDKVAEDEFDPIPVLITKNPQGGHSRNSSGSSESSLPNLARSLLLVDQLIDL

`Cn1nc(C(C)(C)C)cc1-c1nc2ccc(-c3ccncc3)cc2[nH]1` [Example 50, 2-(3-(tert-butyl)-1-methyl-1H-pyrazol-5-yl)-6-(pyridin-4-yl)-1H-benzo[d]imidazole] and `CC1CCCC(c2nc3ccc(-c4ccncc4)cc3[nH]2)C1` (centres unmarked) [Example 81, 2-(3-methylcyclohexyl)-6-(pyridin-4-yl)-1H-benzo[d]imidazole] are within 1.5-fold of each other in IC50: 1730 nM for the first, 1430 nM for the second.

Going from `CC(C)C[C@@H](NC(=O)C(F)(F)F)c1nc2cc(-c3ccncc3)ccc2[nH]1` [Example 80, (R)-2,2,2-trifluoro-N-(3-methyl-1-(5-(pyridin-4-yl)-1H-benzo[d]imidazol-2-yl)butyl)acetamide] to `CC(C)C[C@H](N)c1nc2cc(-c3ccncc3)ccc2s1` [Example 97, (S)-3-methyl-1-(5-(pyridin-4-yl)benzo[d]thiazol-2-yl) butan-1-amine], the IC50 falls from 697 nM to 116 nM (6-fold). The second is the more potent here.

`CC(c1nc2cc(-c3ccncc3)ccc2[nH]1)N1CCOCC1` (centres unmarked) [Example 79, 4-(1-(5-(pyridin-4-yl)-1H-benzo[d]imidazol-2-yl)ethyl)morpholine] and `N[C@@H](c1nc2cc(-c3ccncc3)ccc2[nH]1)C1CCOCC1` [Example 77, (R)-(5-(pyridin-4-yl)-1H-benzo[d]imidazol-2-yl) (tetrahydro-2H-pyran-4-yl) methanamine] are within 1.5-fold of each other in IC50: 591 nM for the first, 436 nM for the second.

Same assay, conditions: ATP 22 μM; GST-Xa-hAAK1 3.5 nM; room temperature for 3 hours; Caliper LabChip 3000; read-out: AAK1 IC50

`CC(C)CCc1nc2ccc(-c3ccncc3)cc2[nH]1` [Example 106, 2-isopentyl-6-(pyridin-4-yl)-1H-benzo[d]imidazole] and `CC(C)CC(C)c1nc2ccc(-c3ccncc3)cc2o1` (centres unmarked) [Example 87, 2-(4-methylpentan-2-yl)-6-(pyridin-4-yl)benzo[d]oxazole] are within 1.5-fold of each other in IC50: 115 nM for the first, 92 nM for the second.

Compared with `CN[C@H](CC(C)C)c1nc2cc(-c3ccnc(N)c3)ccc2[nH]1` [Example 59, (R)-4-(2-(3-methyl-1-(methylamino)butyl)-1H-benzo[d]imidazol-5-yl)pyridin-2-amine], `NC(CC(C(F)(F)F)C(F)(F)F)c1nc2ccc(-c3cnco3)cc2[nH]1` (centres unmarked) [Example 104, 4,4,4-trifluoro-1-(6-(oxazol-5-yl)-1H-benzo[d]imidazol-2-yl)-3-(trifluoromethyl)butan-1-amine] is 54-fold higher in IC50: 7 nM for the first, 381 nM for the second.

Work on “(R)-1-(5-(1H-pyrazolo[3, 4-b]pyridin-4-yl)-1H-benzo[d]imidazol-2-yl)-3-methylbutan-1-amine [Example 7]” yielded an IC50 of 10 nM.

Same assay, conditions: read-out: AAK1 IC50

Compared with `COc1cc(-c2ccc3[nH]c([C@H](N)CC(C)C)nc3c2)ccn1` [Example 13, (R)-1-(5-(2-methoxypyridin-4-yl)-1H-benzo[d]imidazol-2-yl)-3-methylbutan-1-amine], `CC(C)C[C@@H](N)c1nc2cc(F)c(-c3cnco3)cc2[nH]1` [Example 31, (R)-1-(5-fluoro-6-(oxazol-5-yl)-1H-benzo[d]imidazol-2-yl)-3-methylbutan-1-amine] is 5.3-fold lower in IC50: 171 nM for the first, 32 nM for the second. The second is the more potent here.

Compound `C/C(=C\C(C)C)c1nc2cc(-c3ccncc3)ccc2o1` [Example 86, (E)-2-(4-methylpent-2-en-2-yl)-5-(pyridin-4-yl)benzo[d]oxazole] has an IC50 of 2310 nM.

Reference: US10035777B2, “Heterocyclic kinase inhibitors” (priority 2014, dated 2018)
